Data: patent publication US8765729B2, “Cancer therapy” (Aeolus Sciences, Inc., priority 2001, dated 2014)

Experiments:
[1] = test system: R3230 mammary adenocarcinoma cells in Z-chambers; test: Tumor development in Z-chambers; type: in vivo, Fisher-344 rats; conditions: 6 mg/kg i.p. 24 hours before implantation of 2.5 mil./ml cells
Method: FIG. 4. Animals were pretreated with different SOD mimetics (6 mg/kg i.p.) 24 hours before implantation of 2.5 mil./ml R3230 mammary adenocarcinoma cells in Z-chambers.
These chambers are constructed from customized plexi-glass rings with internal diameter of 10 mm and have a pore on the side. The two open surfaces are covered by nylon mesh (pore size 180 microns, Millipore, Mass.) and glued to the rings. Fibrinogen (Human fibrinogen, plasminogen depleted, CalBiochem) is prepared in DMEM, Gibco BRL) and a concentration of 4-5 mg/ml is utilized for the studies. Although the Fischer rats used in the study are immune competent, this purified batch of fibrinogen has been recognized to be very well conserved across species lines. It has already been shown that early angiogenic response to human fibrinogen is very similar to rat fibrinogen in fibrin gel chambers. The two different types of fibrinogen have also been tested in the Z-Chambers and no difference was found in angiogenic and healing response. Human fibrinogen was used.
The Fibrin Z-Chambers have fibrinogen solution poured inside the chamber through the pore and followed by 2 units of thrombin. […]
The Z-Chambers were harvested on day 1 or 12 post surgery. […] The depth of either the tumor tissue (tumor growth) or granulation tissue (wound healing) was measured with calipers on the 4×6 inch print. […]

A549 cells = test: 3H-thymidine incorporation (DNA synthesis) in A549 cells; type: cell-based, human; conditions: 4 μM, 24 hours
Method: FIG. 16. A549 cells were grown 50% confluence in 24 well plates in complete media. Cells were then incubated for 24 hours with the above concentrations of drug and ^3H-thymidine (to assess DNA synthesis). After three washes in PBS, the cells were homogenized and the radioactivity counted. At 4 μM MnTE-2-PyP, there was a 50% inhibition of incorporation of ^3H-thymidine.

[2] = test system: R3230 AC mammary adenocarcinoma; test: R3230 AC mammary adenocarcinoma growth and radiation response in Fischer 344 rats; type: in vivo; conditions: for tumor growth as compared to control (Day 20 Tumor Ratio, Days for 5-fold tumor growth): 6 mg/kg/day IP Day 1 to 20, FIG. 2C
Method: FIGS. 2A-2C. (FIG. 2A) B16 melanoma tumor treated with SOD mimetic. The mimetic was 10113 at a dose of 6 mg/kg given intraperitoneally qd for 5 days. (FIG. 2B) Mammary adenocarcinoma treated with SOD mimetic. 10113 was given intraperitoneally at a dose of 6 mg/kg/day for 16 days. Radiation therapy (RT), 21 Gy, was given on day 8 or 9. (FIG. 2C) Fischer 344 rats with subcutaneously implanted R3230 AC mammary adenocarcinomas received Radiation treatment (21 Gy Day 1), AEOL 10113 (6 mg/kg/day IP Day 1 to 20), the combination Radiation and AEOL 10113 (as above), or Control treatment.
The effect of the MnTE-2-PyP (manganese(III) tetrakis(N-ethylpyridinium-2-yl)porphyrin) on tumor growth and radiation response in two tumor models has been tested. […] The effect of the SOD mimetic. MnTE-2-PyP, on tumor growth and radiation response has been tested in a rat model.
[…] AC mammary adenocarcinoma was transplanted on the right hind leg. When the tumors reached 0.8-1 cm in diameter, the rats were randomized into 4 groups to receive 1) Saline (control); 2) Drug 10150; 3) Drug 10113; 4) Drug 10201. Drugs were given daily in dose of […] i.p. The tumor size was measured twice a week. (FIG. 3).

[3] = test system: tumor angiogenesis, R230 mammary adenocarcinoma cells in Z-chambers; test: Tumor angiogenesis in Z-chambers (microvessel density); type: in vivo, Fisher-344 rats; conditions: 6 mg/kg i.p. 24 hours before implantation
Method: FIG. 5. Antiangiogenesis: Animals were pretreated with different SOD mimetics (6 mg/kg i.p.) 24 hours before implantation of 2.5 mil./ml R230 mammary adenocarcinoma cells in Z-chambers.
Immunohistochemistry was carried out using procedures described by Hsu et al (Hsu et al., j. Histochem. Cytochem. 29:577-580 (1981)). Briefly, paraffin embedded tissues were sectioned (5 microns) and antigen retrieval was performed using citrate buffer from Biogenex (San Ramon, Calif.). Tissues were treated with primary antibody against tissue transglutaminase (TG100, 1:10, endothelial cell marker, non-reactive to Factor XIIIa) (Neomarkers, Calif.) for 1 hour at 37° C. Secondary antibody (Jackson ImmunoResearch. PA) and tertiary. (Vector, Calif.) antibodies were incubated for 25 minutes at 37° C. and the location of the reaction was visualized with 3,3-diaminobenzidine tetrahydrochloride Sigma (St. Louis, Mo.). Slides were counterstained with hematoxylin and mounted with coverslips. Controls for the immunohistochemistry were treated with mouse IgG instead of primary antibody and were negative in any reactivity. […] Microvessel density was calculated as described by Weidner et al (Weidner et al, J. New Engl. J. Med. 324:1-8 (1991)). Briefly, six hot spots or areas with highest vessels marked by the vessel marker at a high power field (400×) per sample section were selected and number of blood vessel counted. […]

## CC[n+]1ccccc1-c1c2nc(c(-c3cccc[n+]3CC)c3ccc([n-]3)c(-c3cccc[n+]3CC)c3nc(c(-c4cccc[n+]4CC)c4ccc1[n-]4)C=C3)C=C2.[Mn+3] [Compound 10113, manganese(III)tetrakis(N-ethylpyridinium-2-yl)porphyrin]
[1]
  tumor development: Significant (p<0.01) inhibition of tumor development
A549 cells
  inhibition of incorporation of 3H-thymidine: 50%
[2]; listed as AEL 10113
  tumor growth as compared to control (Day 20 Tumor Ratio, Days for 5-fold tumor growth): limited tumor growth
[2]; listed as AEOL 10113
  tumor growth as compared to control (Day 20 Tumor Ratio, Days for 5-fold tumor growth): significantly (p<0.05) inhibited tumor growth
[2]; radiation 21 Gy plus mimetic
  post-radiation tumor regrowth: significant inhibition of the post-radiation tumor regrowth
[2]; radiation 21 Gy plus mimetic, listed as AEL 10113
  effect on tumor response to radiation: did not diminish the effect of radiation on tumor growth
[2]; radiation 21 Gy plus mimetic, listed as MnTE-2-PyP
  effect on tumor response to radiation: does not protect tumor from irradiation
[2]; rat model, SOD mimetic alone
  inhibition of tumor growth: > 50%
[3]
  tumor angiogenesis: Significant inhibition of tumor angiogenesis
